In patent publication US10952963B2, “Ready to use liquid RECK formulation” (QuVa Pharma, Inc., priority 2018, dated 2021):

Conditions: for pH that provides for acceptable stability: pH 4.8
Description: Multiple antioxidants, chelating agents, and buffers were evaluated to stabilize both epinephrine and ketorolac, which include: sodium bisulfite, sodium metabisulfite, EDTA Sodium Dihydrate (i.e., EDTA Sodium), citric acid, sodium phosphate dibasic, and PEG 400. Solution pH values were evaluated from a pH of 3.9-6.0.

Row | pH range of maximum stability | pH at which substantial degradation occurs | pH that provides for acceptable stability | pH at which rate of degradation increases | pH at which substance tended to degrade | sodium metabisulfite concentration in the presence of which the substance degrades substantially [mg/mL] | Compound
1 | 3-4 |  |  |  |  |  | Clc1cccc(Cl)c1N=C1NCCN1 [clonidine]
2 | 3-4 | greater than 4 | about 4.8 |  |  |  | CNC[C@H](O)c1ccc(O)c(O)c1 [epinephrine]
3 | 6-7 |  | about 4.8 | less than 5 | less than 4.5 | ≥ 1 | O=C(c1ccccc1)c1ccc2n1CCC2C(=O)O (stereo not shown) [ketorolac]
4 | 3-4 |  |  |  |  |  | CCCN1CCCC[C@H]1C(=O)Nc1c(C)cccc1C [ropivacaine]
